Blank lines part the entries; values can stand above or below the molecule they belong to. Non-standard residues stand in square brackets, D forms with d. Residues, ends and D or L forms follow the SMILES beside them. *: point of attachment. Myristoyl = CCCCCCCCCCCCCC(=O)*; Nle = CCCC[C@H](N)C(=O)O; For = O=C*
Key:
[1] = Determination of lipophilicity relative to human insulin (k'rel) by RP-HPLC; type: physicochemical; conditions: pH 7.3
Method: The lipophilicity of peptides and peptide derivatives relative to human insulin, k'rel, was measured on a LiChrosorb RP18 (5 μm, 4×250 mm) HPLC column by isocratic elution at 40° C. using mixtures of A) 0.1M sodium phosphate buffer, pH 7.3, containing 10% acetonitrile, and B) 50% acetonitrile in water as eluents. The elution was monitored by following the UV absorption of the eluate at 214 nm. Void time, t0, was found by injecting 0.1 mM sodium nitrate. Retention time for human insulin. tinsulin, was adjusted to at least 2t0 by varying the ratio between the A and B solutions. k'rel =(tderivate -t0)/(tinsulin -t0).

rabbits = assay: Blood glucose in rabbits pre-treated with Insulin Actrapid, after SC injection; type: in vivo
Method: The resulting solution was sterilized by filtration and transferred to a vial.
Blood was sampled at times: -60, 0, 15, 30, 60, 120, 180 and 240 min, and the glucose concentration determined by the hexokinase method.

[2] = LiChrosorb RP18 HPLC, isocratic elution, 40° C.

Molecule: CCCCCCCCCCCCCC(=O)NCCCC[C@H](NC(=O)[C@H](Cc1ccc(O)cc1)NC(=O)[C@H](CCCC)NC(=O)[C@H](Cc1ccccc1)NC(=O)[C@H](CC(C)C)NC(=O)[C@H](CCCC)NC=O)C(=O)O [Example 1, For-Nle-Leu-Phe-Nle-Tyr-Lys(N^ε -tetradecanoyl)-OH] (For-[Nle]LF[Nle]YK(Myristoyl)-OH)
lipophilicity relative to human insulin, k'rel [1, 2]: 8.2×10^3

lipophilicity relative to human insulin, k'rel [1, 2]: 5.3×10^3
Molecule: CCCCCCCCCCCCCC(=O)NCCCC[C@H](NC(=O)[C@H](Cc1ccc(O)cc1)NC(=O)[C@@H](NC(=O)[C@H](Cc1ccccc1)NC(=O)[C@H](Cc1ccccc1)NC(=O)[C@H](Cc1c[nH]cn1)NC(=O)[C@H](Cc1ccccc1)NC(=O)[C@@H]1CCCN1C(=O)[C@H](Cc1c[nH]cn1)NC(=O)[C@@H]1CCCN1)C(C)C)C(=O)O [Example 3] (H-PHPFHFFVYK(Myristoyl)-OH)

lipophilicity relative to human insulin, k'rel [1]: 2.3
Molecule: CCCC[C@H](NC=O)C(=O)N[C@@H](CC(C)C)C(=O)N[C@@H](Cc1ccccc1)C(=O)N[C@@H](CCCC)C(=O)N[C@@H](Cc1ccc(O)cc1)C(=O)N[C@@H](CCCCN)C(=O)O [For-Nle-Leu-Phe-Nle-Tyr-Lys-OH] (HELM PEPTIDE1{[O=C[*:2]].[Nle].L.F.[Nle].Y.K}$$$$V2.0)

Molecule: CC(C)C[C@H](NC(=O)[C@H](Cc1ccccc1)NC(=O)CNC(=O)[C@@H](C)NC(=O)[C@@H](N)Cc1ccc(O)cc1)C(=O)N[C@@H](CCCCN)C(=O)O [H-Tyr-D-Ala-Gly-Phe-Leu-Lys-OH] (HELM PEPTIDE1{Y.[dA].G.F.L.K}$$$$V2.0)
lipophilicity relative to human insulin, k'rel [1, 2]: 3.0×10^-3

lipophilicity relative to human insulin, k'rel [1, 2]: 2.3×10^2
Molecule: H-PHPFHFFVYK-OH

Molecule: Lys^30 (Nε-decanoyl) glucagon [Example 6]
blood glucose concentration (rabbits; 0 min (time of SC injection of test substance)): 51 mg glucose/100 ml | blood glucose concentration (rabbits; 15 min after SC injection): 79 mg glucose/100 ml | blood glucose concentration (rabbits; 30 min after SC injection): 93 mg glucose/100 ml | blood glucose concentration (rabbits; 60 min after SC injection): 114 mg glucose/100 ml | blood glucose concentration (rabbits; 120 min after SC injection): 112 mg glucose/100 ml | blood glucose concentration (rabbits; 180 min after SC injection): 116 mg glucose/100 ml | blood glucose concentration (rabbits; 240 min after SC injection): 110 mg glucose/100 ml | blood glucose concentration (rabbits; -60 min (time of 2 IU Insulin Actrapid, before test substance)): 94 mg glucose/100 ml | blood glucose raising effect compared with glucagon (rabbits; SC, conclusion from the table): prolonged action
